This is an account of results in patent publication US20050143354A1, “Association of an antithrombotic and aspirin” (priority 2002, published 2005).

The test system of this experiment is arterial thrombosis in the guinea-pig. In words: arterial thrombosis test in the guinea-pig (cyclic flow reductions after carotid artery lesion). Type of experiment: in vivo. The settings on record: aspirin 2 mg/kg i.v. alone; not different from control animals. An excerpt:
This test is based on the model initially described by Roux et al. (Thromb Haemost 71: 252-256, 1994). The guinea-pigs are anaesthetised using ketamine+xylazine (90+12) mg.kg i.m.. The trachea is cannulated and spontaneous respiration by the animals maintained. The jugular vein is cannulated, allowing the intravenous administration of the compounds being tested. The carotid artery is isolated, and a Doppler probe is installed allowing the arterial blood flow to be measured. After stabilisation, a lesion to the artery wall is produced by means of a clip applied distally to the Doppler probe. Subsequent to that lesion, the blood flow decreases. When the flow reaches zero, the artery is lightly shaken, which allows the flow to be restored. The thrombosis process continues, leading again to the flow reducing and ceasing. The thrombotic phenomena accordingly result in cyclic flow reductions (CFR), which are observed over a period of 20 minutes. After that period, the animal is treated, or not, with compound (A), and the CFR are again observed for a period of 20 minutes. The experiments are carried out in control animals or in animals treated by the intravenous route with aspirin (2 mg/kg).
This study was carried out using the sodium salt of the (R) isomer of compound (A).

Turning to `CC(=O)Oc1ccccc1C(=O)O` [aspirin], the “cyclic flow reductions (CFR)” value amounted to 8±1 CFR/20 min.
